Test results reported in patent publication US20240398817A1, “CARDIO- AND RENOSAFE ANTIDIABETIC THERAPY” (priority 2018, published 2024).
Entries after “also recorded” stand apart in the source; their conditions may differ.

System: patients with type 2 diabetes at high vascular risk
Assay: Cardiovascular and Renal Outcomes Trial: linagliptin 5 mg once daily vs placebo on top of standard of care
Assay type: in vivo
Conditions: for Albuminuria progression: patients, %: of 2162 analysed; for Hospitalisation for heart failure vs placebo, in words: subgroup without insulin use at baseline
Protocol: The effect of linagliptin on cardiovascular risk in adult patients with type 2 diabetes mellitus and with increased CV risk evidenced by a history of established macrovascular or renal disease (e.g. as defined herein) was evaluated in a multi-center, multi-national, randomized, double-blind parallel group trial. The trial compared the risk of experiencing a major adverse cardiovascular event (MACE) between linagliptin and placebo when these were added to and used concomitantly with standard of care treatments for diabetes (HbA1c), cardiovascular risk factors and renal disease.
The primary endpoint in this trial was the time to first occurrence of three point (3P) MACE. A major adverse cardiac event was defined as a cardiovascular death or a nonfatal myocardial infarction (MI) or a nonfatal stroke. The statistical analysis plan tested for non-inferiority for the occurrence of (3P) MACE. […] The secondary endpoint was a renal composite, defined as renal death or sustained end stage renal disease or sustained decrease of 40% or more in eGFR.
Type 2 diabetes patient with insufficient glycemic control (naïve or pre-treated with any antidiabetic background medication, excluding treatment with GLP-1 receptor agonists, DPP-4inhibitors or SGLT-2 inhibitors if ≥consecutive 7 days, e.g. having HbA1c 6.5-10%), and high risk of cardiovascular events, e.g. defined by: • albuminuria (micro or macro) and previous macrovascular disease: e.g. defined according to Condition I as indicated below; • and/or • impaired renal function: e.g. as defined according to Condition II as indicated below;
Background and aims: People with type 2 diabetes (T2D) are at increased risk for hospitalization for heart failure (hHF), particularly in the setting of concomitant cardiovascular (CV) and/or kidney disease. […] Here we present analyses of HF outcomes with the DPP-4 inhibitor linagliptin (LINA) vs. placebo (PBO) from a Cardiovascular and Renal Outcomes Trial assessing cardiovascular safety and renal microvascular outcome in patients with type 2 diabetes at high vascular risk, a large CV outcomes trial that enrolled participants with T2D at high risk for hHF due to concomitant CV and/or chronic kidney disease. Materials and methods: People with T2D and concomitant CV and/or kidney disease were randomized to receive LINA 5 mg, or PBO once daily (1:1), on top of standard of care. All hHF, CV outcomes, and deaths were centrally adjudicated, with individual and composite HF-related outcomes analyses comparing LINA vs. placebo. Investigator-reported HF-related adverse events, whether or not confirmed by adjudication, were also analyzed. A Cox proportional hazards model adjusting for region and history of HF was used for analyses of first events. Recurrent hHF events were analyzed using a negative binomial model.
Methods: The present Cardiovascular and Renal Outcomes Trial randomized people with T2D and i) concomitant CV disease with UACR >30 mg/g or ii) prevalent CKD (i.e. GFR <45 ml/min/1.73m2 and/or UACR >200 mg/g) to receive the DPP-4 inhibitor linagliptin (5 mg) or placebo once daily in a double-blind fashion. The primary CV endpoint was 3P-MACE, with a key secondary kidney endpoint (adjudicated ESKD, renal death, or sustained ≥40% decrease in eGFR from baseline) and other renal outcomes (including albuminuria and eGFR slope) also assessed. Subgroups were assessed by baseline kidney function (eGFR ≥/<45 ml/min/1.73m2and eGFR ≥/<30, 45 or 60 ml/min/1.73m2).
Adults with type 2 diabetes, HbA1c 6.5-10.0% inclusive, and high CV risk were eligible for inclusion. […] Macrovascular disease eligibility criteria was based on documented and confirmed history of myocardial infarction, coronary artery disease, stroke, carotid artery disease, or peripheral artery disease. Participants with end-stage kidney disease (ESKD), defined as eGFR <15 or requiring maintenance dialysis, were excluded.

Compound: CC#CCn1c(N2CCC[C@@H](N)C2)nc2c1c(=O)n(Cc1nc(C)c3ccccc3n1)c(=O)n2C [Linagliptin, 1-[(4-methyl-quinazolin-2-yl)methyl]-3-methyl-7-(2-butyn-1-yl)-8-(3-(R)-amino-piperidin-1-yl)-xanthine]
- Hospitalization for unstable angina: rate/1000 patient-years (in vivo): 5.5 per 1000 patient years
- Hypersensitivity reactions, all AEs: % (in vivo): 3.3%
- Hypersensitivity reactions, all AEs: N (in vivo): 114
- Investigator reported HF events: HR vs placebo (in vivo): 0.87
- Investigator reported HF events: events (in vivo): 243
- Investigator reported hypoglycemia: % (in vivo): 29.7%
- Investigator reported hypoglycemia: N (in vivo): 1036
- New initiation of loop diuretics or hHF: HR vs placebo (in vivo): 0.95
- New initiation of loop diuretics or hHF: participants (in vivo): 330/2530
- New introduction of loop diuretics: HR vs placebo (in vivo): 0.94
- New introduction of loop diuretics: participants (in vivo): 318/2530
- Non-cardiovascular death: % (in vivo): (3.2) %
- Non-cardiovascular death: hazard ratio vs placebo (in vivo): 1.02
- Non-cardiovascular death: no. (in vivo): 112
- Non-cardiovascular death: rate/1000 patient-years (in vivo): 14.3 per 1000 patient years
- Non-fatal myocardial infarction: % (in vivo): (4.5) %
- Non-fatal myocardial infarction: hazard ratio vs placebo (in vivo): 1.15
- Non-fatal myocardial infarction: no. (in vivo): 156
- Non-fatal myocardial infarction: rate/1000 patient-years (in vivo): 20.6 per 1000 patient years
- Non-fatal stroke: % (in vivo): (1.9) %
- Non-fatal stroke: hazard ratio vs placebo (in vivo): 0.88
- Non-fatal stroke: no. (in vivo): 65
- Non-fatal stroke: rate/1000 patient-years (in vivo): 8.5 per 1000 patient years
- Pancreatic cancer: % (in vivo): 0.3%
- Pancreatic cancer: N (in vivo): 11
- Participants with ≥2 hHF events: % (in vivo): 1.7%
- Participants with ≥2 hHF events: n (in vivo): 60
- Pemphigoid (bullous pemphigoid): % (in vivo): 0.2%
- Pemphigoid (bullous pemphigoid): N (in vivo): 7
- Reduction of risk of albuminuria progression compared to placebo (in vivo): about 14%
- Reduction of risk of microvascular renal and/or eye complications compared to placebo (in vivo): about 14%
- Renal death, sustained ESKD, or sustained decrease of 50% or more in eGFR from baseline: hazard ratio vs placebo (in vivo): 0.98
- Risk of HHF regardless of baseline renal function, in words (in vivo): did not affect the risk of HHF
- Risk of albuminuria progression vs placebo, in words (in vivo): significantly reduced
- Risk of hospitalization for heart failure, in words (in vivo): no increase in the risk
- Serious adverse events: % (in vivo): 37.0%
- Serious adverse events: N (in vivo): 1293
- Skin lesions: % (in vivo): 0.1%
- Skin lesions: N (in vivo): 5
- Stent thrombosis, hospitalisation for peripheral vascularisation, retinopathy-related endpoints vs placebo, in words (in vivo): no significant difference
- Sustained decrease of 30% or more in eGFR with eGFR <60; and renal death, sustained ESRD or CV death vs placebo, in words (in vivo): no significant difference
- Time to first event of investigator reported events or adjudicated hHF: HR vs placebo (in vivo): 0.92
- Time to first event of investigator reported events or adjudicated hHF: events (in vivo): 305
- eGFR changes over time and transition in CKD status vs placebo, in words (in vivo): no clinically meaningful differences
- eGFR slope (MDRD): between-group difference vs placebo, estimate ± SE (in vivo): −0.175 ± 0.151 /year
- eGFR-slope, in words (in vivo): unaffected
- hHF or all-cause mortality: HR vs placebo (in vivo): 0.95
- hHF or all-cause mortality: events (in vivo): 499
- 4-point MACE: % (in vivo, listed as linagliptin): 13.3%
- Acute pancreatitis, adjudication confirmed: N (in vivo, listed as linagliptin): 9
- Albuminuria progression: hazard ratio (95% CI) vs placebo (in vivo, listed as linagliptin): 0.86
- Albuminuria progression: rate/100 patient-years (in vivo, listed as linagliptin): 21.4 per 100 patient-years
- Hospitalization for heart failure or cardiovascular death: % (in vivo, listed as linagliptin): 11.6%
- Skin lesions: % (in vivo, listed as linagliptin): 0.2%
- Risk of major adverse cardiovascular events (3P-MACE) vs placebo, in words (median follow up 2.2 years): non-inferior to placebo
- Risk of renal outcome events vs placebo, in words (median follow up 2.2 years): did not increase the risk
- Risk of major adverse cardiovascular events (3P-MACE) vs placebo, in words (median follow up 2.2 years, listed as linagliptin): did not increase the risk
- Any adverse events: N (n = 3494): 2697
- eGFR slope (MDRD) from baseline to last value on treatment/year, estimate ± SE (n = 6740 both groups): −2.459 ± 0.106 /year
- hHF events (first+recurrent): rate ratio vs placebo (negative binomial model): 0.94
- Albuminuria progression: patients, %: (35.3) %
- Albuminuria progression: patients, % (listed as linagliptin): 35.3%
- Contributing to composite microvascular outcome: patients with albuminuria progression, % (of n = 3494): 21.3%
- Albuminuria progression: number of patients (patients analysed 2162 (n = 4291 both groups)): 763
- Rate of hypoglycemia compared to placebo, in words (patients taking sulfonylurea at baseline): numerically higher rate
- Incidence of severe hypoglycaemia (patients using insulin at baseline): 4.4%
- Incidence of severe hypoglycaemia (patients using sulfonylurea at baseline): 2.0%
- Time to onset of intensification or initiation of insulin vs placebo, in words (patients without insulin use at baseline): later
- Cumulative number of hHF events (first+recurrent) (recurrent events analysis): 326
- Patients who achieved glycaemic control at the end of the study irrespective of antidiabetic medication: % (study end): 29.0%
- Patients who achieved glycaemic control at the end of the study irrespective of antidiabetic medication: n (study end): 1012
- Proportion achieving glycaemic control at study end without additional or increased antidiabetic medication vs placebo, in words (study end visit): significantly greater
- Risk of hHF vs placebo, in words (subgroup baseline SBP <140 mmHg): statistically lower risk of hHF
- Risk of hHF vs placebo, in words (subgroup enrolled from North America or Asia, listed as LINA): nominally significant reductions
- Risk of hHF vs placebo, in words (subgroup enrolled from North America or Asia, listed as linagliptin): Statistically significant lower risk of hHF
- Hospitalisation for heart failure vs placebo, in words (listed as LINA): nominally significant reduction
- Hospitalisation for heart failure vs placebo, in words (listed as linagliptin): favouring linagliptin in patients without insulin; also recorded: Statistically significant lower risk of hHF
- 4P-MACE, CV death, all-cause mortality, and MI-related endpoints vs placebo, in words (tertiary endpoints): no significant differences
- Fatal and non-fatal stroke and transient ischaemic attack vs placebo, in words (tertiary endpoints): no significant differences
- hHF; CV death or hHF; all-cause mortality or hHF; heart failure AEs vs placebo, in words (tertiary endpoints): no significant differences
- Severe hypoglycemic event (requiring assistance): % (treated population): 3.0%
- Severe hypoglycemic event (requiring assistance): N (treated population): 106
- UACR vs placebo, in words (up to Week 132): statistically significant and clinically meaningful reduction
- UACR: difference at week 36 (gMean ratio of relative change for linagliptin versus placebo) (week 36): 0.87
- UACR: difference at week 84 (gMean ratio of relative change for linagliptin versus placebo) (week 84): 0.88
